Source: patent US20060258755A1, “Preparation of sevoflurane with negligible water content” (priority 2005, published 2006)

Key:
Type in all cases: physicochemical
[1] = Stability trial of sevoflurane dried over Type 3A molecular sieve, packaged in glass bottles or epoxy-lined drums; conditions: for decomposition / % sevoflurane by gas chromatography: dried to 0 ppm water, 30 days at 40° C. and 75% relative humidity; for % sevoflurane by gas chromatography: initial 99.99%
Procedure: Sevoflurane (99.99%, produced January 2005) was dried over Type 3A molecular sieve using a continuous flow bed apparatus to a water-composition of 0.0 wt % (or 0 ppm) as measured by Karl Fischer. 100 ml of sevoflurane was packaged into a Type III amber glass bottle and sealed for a 30-day stability trial at 40° C. and 75% relative humidity. At the end of this time, the sevoflurane was 99.99% as determined by gas chromatography.
Sevoflurane (99.99%, produced January 2005) was dried over Type 3A molecular sieve using a continuous flow bed apparatus to a water composition of 0.0 wt % (or 0 ppm) as measured by Karl Fischer. 250 ml of sevoflurane was packaged into a Type III amber glass bottle and sealed for a 30-day stability trial at 40° C. and 75% relative humidity. At the end of this time, the sevoflurane was 99.99% as determined by gas chromatography.
Sevoflurane (99.99%, produced January 2005) was dried over Type 3A molecular sieve using a continuous flow bed apparatus to a water composition of 0.0 wt % (or 0 ppm) as measured by Karl Fischer. 28.1 kg of sevoflurane was packaged in a five-gallon epoxy-lined drum and sealed for a 30-day stability trial at 40° C. and 75% relative humidity. At the end of this time, the % sevoflurane was 99.99% as determined by gas chromatography.
Purified Sevoflurane was dried over Type 3A molecular sieve using a continuous flow bed apparatus to negligible or near-negligible water compositions as measured by Karl Fischer. The dried material was packaged into 100 mL or 250 mL Type III amber glass bottles or into 5 gal epoxy-lined drums and subsequently stored as part of a stability trial under controlled or ambient conditions.
The sevoflurane used in examples 8-11 was produced by the method described in pending U.S. patent application Ser. No. 11/281,293, filed Nov. 17, 2005, the disclosure of which is incorporated herein by reference.

[2] = Storage stability of sevoflurane in Type III glass bottle (gas chromatography, Karl Fischer)
Procedure: In one experiment initiated in August 2000, sevoflurane (Abbott Laboratories, Lot #61-339-DK, Expiration Date Aug. 1, 2001) was dried to 0 ppm water content using Type 3A molecular sieve. Drying was performed by mixing the sevoflurane with molecular sieves and then allowing these materials to stand together for several hours. The water content was determined by Karl Fischer analysis. A sample of the dried sevoflurane was placed in a new amber Type III glass bottle, which had been dried at 100° C. for 2 hours. The bottle was sealed with a black phenolic/urea resin cap and a polyseal liner of polyethylene resin and shrink-wrapped or wrapped with Teflon® tape and shrink-wrapped. The sample was then held at room temperature (25-27° C.) and at ambient relative humidity. […] One undried lot of sevoflurane from Abbott Laboratories (Lot #0 335 70 K, Expiration Date Apr. 1, 1997, stored in a Type III bottle) was analyzed in May and October 2000. This sevoflurane was 97 ppm H2O and 99.9916% sevoflurane by gas chromatography.

[3] = Water saturation limit of sevoflurane; conditions: second sample of Example 4 (28 g)
Procedure: Currently available processes for the preparation of sevoflurane generally give a product containing dissolved water up to 0.12 to 0.14 wt %, or 1200 to 1400 ppm, the approximate water saturation limit of sevoflurane. […] This sample was sealed in September 2000 in a new Type III glass bottle as previously described and stored at 40° C. for four weeks.

[4] = Storage stability of sevoflurane in the presence of iron oxide (Fe2O3, a Lewis acid)
Procedure: A sample of sevoflurane containing 30 ppm of water and 0.05 g Fe2O3 (iron oxide) was placed in a new Type III amber glass bottle in July 2000 and sealed as previously described. […] This sample was sealed in September 2000 in a new Type III glass bottle as previously described and stored at 40° C. for four weeks.

[5] = Storage stability of sevoflurane stored with Type 3A molecular sieve in Type III glass
From the text: Another sample of sevoflurane (40 g) was stored with 2 g of Type 3A molecular sieve (an alumino silicate that contains Al2O3, identified as a Lewis acid in the '176 patent) in July 2000. This sample was in a new Type III glass container for six months at ambient temperatures.
Starting in July 2000, 40 g of sevoflurane (Abbott Laboratories Lot # 35-621 -DK-03) was stored in the presence of 2 g of Type 3A molecular sieve for 20 months in a dried, new Type III amber glass bottle at room temperature. The initial water content was 218 ppm and was essentially zero after 16 hours of contact with the molecular sieve (as determined by Karl Fischer, a method known to those skilled in the art with a detection limit of about 1 ppm or less).
Starting in July 2000, a sample of sevoflurane (from the lot described in Example 1) was held at room temperature (25-27° C.) over Type 3A molecular sieve for two-and-a-half months in a dried, new Type III amber glass bottle.

[6] = 5 gal epoxy-lined drum, Mfg. April 2005, initial water 6 ppm, 60 days, 40 C./75% RH
[7] = 5 gal epoxy-lined drum, Mfg. April 2005, initial water 10 ppm, 9 months, Ambient
[8] = 5 gal epoxy-lined drum, Mfg. February 2005, initial water 0 ppm, 12 months, 40 C./75% RH
[9] = 5 gal epoxy-lined drum, Mfg. February 2005, initial water 0 ppm, 12 months, Ambient
[10] = 5 gal epoxy-lined drum, Mfg. January 2005, initial water 0 ppm, 6 months, 40 C./75% RH
[11] = 5 gal epoxy-lined drum, Mfg. January 2005, initial water 0 ppm, 90 days, Ambient
[12] = 100 mL Type III amber glass bottle, Mfg. February 2005, initial water 0 ppm, 9 months, 25 C./60% RH
[13] = 100 mL Type III amber glass bottle, Mfg. February 2005, initial water 0 ppm, 60 days, 40 C./75% RH
[14] = 250 mL Type III amber glass bottle, Mfg. April 2005, initial water 5 ppm, 6 months, 25 C./60% RH
[15] = 250 mL Type III amber glass bottle, Mfg. April 2005, initial water 5 ppm, 90 days, 40 C./75% RH
[16] = 250 mL Type III amber glass bottle, Mfg. February 2005, initial water 0 ppm, 9 months, 25 C./60% RH
[17] = 250 mL Type III amber glass bottle, Mfg. February 2005, initial water 0 ppm, 60 days, 40 C./75% RH
[18] = 250 mL Type III amber glass bottle, Mfg. January 2005, initial water 0 ppm, 12 months, 25 C./60% RH
[19] = 28.1 kg in five-gallon epoxy-lined drum
[20] = 100 ml in Type III amber glass bottle
[21] = 250 ml in Type III amber glass bottle
[22] = undried Abbott Lot #0 335 70 K, 97 ppm H2O, Type III bottle, ambient temperature for about five years
[23] = 28 g saturated with water (1235 ppm), 0.07 g Fe2O3, new Type III glass bottle, 40° C. for four weeks
[24] = 30 ppm water, 0.05 g Fe2O3, new Type III amber glass bottle, four weeks at 40° C.
[25] = 40 g with 2 g Type 3A molecular sieve, new Type III glass container, six months at ambient temperatures
[26] = lot of Example 1 over Type 3A molecular sieve, dried, new Type III amber glass bottle, room temperature (25-27° C.), two-and-a-half months

FCOC(C(F)(F)F)C(F)(F)F [sevoflurane, 1,1,1,3,3,3-hexafluoroisopropyl fluoromethyl ether]
Final Comp. [1, 6]: 99.998%
Result (decomposition) [1, 6]: No
Final Comp. [1, 7]: 99.998%
Result (decomposition) [1, 7]: No
Final Comp. [1, 8]: 99.98%
Result (decomposition) [1, 8]: No
Final Comp. [1, 9]: 99.98%
Result (decomposition) [1, 9]: No
Final Comp. [1, 10]: 99.98%
Result (decomposition) [1, 10]: No
Final Comp. [1, 11]: 99.99%
Result (decomposition) [1, 11]: No
Final Comp. [1, 12]: 99.98%
Result (decomposition) [1, 12]: No
Final Comp. [1, 13]: 99.99%
Result (decomposition) [1, 13]: No
Final Comp. [1, 14]: 99.997%
Result (decomposition) [1, 14]: No
Final Comp. [1, 15]: 99.997%
Result (decomposition) [1, 15]: No
Final Comp. [1, 16]: 99.98%
Result (decomposition) [1, 16]: No
Final Comp. [1, 17]: 99.98%
Result (decomposition) [1, 17]: No
Final Comp. [1, 18]: 99.99%
Result (decomposition) [1, 18]: No
decomposition [1, 19]: no decomposition
% sevoflurane by gas chromatography [1, 19]: 99.99%
decomposition [1, 20]: no decomposition
% sevoflurane by gas chromatography [1, 20]: 99.99%
decomposition [1, 21]: no decomposition
% sevoflurane by gas chromatography [1, 21]: 99.99%
% sevoflurane by gas chromatography ([2]; Abbott Lot #61-339-DK dried to 0 ppm water with Type 3A molecular sieve, new amber Type III glass bottle, room temperature (25-27° C.), ambient relative humidity, four weeks): 99.998%
water (Karl Fischer analysis) at end of stability run ([2]; Abbott Lot #61-339-DK dried to 0 ppm water, new amber Type III glass bottle, room temperature (25-27° C.), ambient relative humidity, four weeks): 68 ppm
decomposition ([2]; Abbott Lot #61-339-DK dried to 0 ppm water, new amber Type III glass bottle, room temperature (25-27° C.), four weeks): no decomposition
% sevoflurane by gas chromatography [2, 22]: 99.9916%
decomposition [2, 22]: without decomposition
water content of sevoflurane saturated with water [3]: 1235 ppm
decomposition [4, 23]: no decomposition
purity by gas chromatography [4, 23]: 99.97%
% (CF3)2CHOCH2OCH(CF3)2 decomposition product by gas chromatographic analyses [4, 24]: 6.33%
% (CF3)2CHOH decomposition product by gas chromatographic analyses [4, 24]: 0.49%
% sevoflurane by gas chromatographic analyses [4, 24]: 90.7%
decomposition ([5]; 40 g Abbott Lot # 35-621 -DK-03 with 2 g Type 3A molecular sieve, dried, new Type III amber glass bottle, room temperature, 20 months): no evidence of any decomposition
% sevoflurane by gas chromatography ([5]; 40 g Abbott Lot # 35-621 -DK-03 with 2 g Type 3A molecular sieve, dried, new Type III amber glass bottle, room temperature, 20 months, initial water 218 ppm, essentially zero after 16 hours): 99.997%
% sevoflurane by gas chromatography [5, 25]: greater than 99.99%
decomposition [5, 25]: No decomposition
% sevoflurane by gas chromatography [5, 26]: greater than 99.99%
decomposition [5, 26]: no decomposition
